Laboratory results taken from ChEMBL document CHEMBL3885861, “Open TG-GATES”.

Organism: Rattus norvegicus
Assay: Open TG-GATES - Regimen: Daily Repeat
Type: toxicity, organism-based, Sprague-Dawley
Design: regimen Daily Repeat, gender Male, age 6 weeks
Conditions: in vivo, po, 0 mg/kg, route gavage, dose level Control; for APTT / Bas / Eos / Fbg / Hb / Ht / Lym / MCH / MCHC / MCV / Mono / Neu / PT / Plat / RBC / Ret / WBC: tissue Blood; for KIDNEY_L / KIDNEY_R / KIDNEY_TOTAL: tissue Kidney; for LIVER: tissue Liver; for A/G / ALP / ALT / AST / BUN / CRE / Ca / Cl / DBIL / GLC / IP / K / LDH / Na / PL / RALB / TBIL / TC / TG / TP / gamma-GTP: tissue Plasma

## CN(C)[C@@H]1C(O)=C(C(N)=O)C(=O)[C@@]2(O)C(O)=C3C(=O)c4c(O)cccc4[C@@](C)(O)[C@H]3C[C@@H]12 [TETRACYCLINE]
72 h, time 3 day
  TERMINAL_BW: 188 g
  APTT: 16 s
  Bas: 0%
  Eos: 0.8%
  Fbg: 221 mg/dL
  Hb: 13.6 g/dL
  Ht: 41.2%
  Lym: 82.4%
  MCH: 21.9 pg
  MCHC: 33.1%
  MCV: 66 fL
  Mono: 6.8%
  Neu: 10%
  PT: 12.3 s
  Plat: 96.9 x10_4/uL
  RBC: 625 x10_4/ul
  Ret: 8.2%
  WBC: 111.7 x10_2/uL
  KIDNEY_L: 0.9 g
  KIDNEY_R: 0.9 g
  KIDNEY_TOTAL: 1.7 g
  LIVER: 9 g
  A/G: 2.2
  ALP: 921.6 IU/L
  ALT: 43.6 IU/L
  AST: 69 IU/L
  BUN: 17.6 mg/dL
  CRE: 0.6 mg/dL
  Ca: 11.2 mg/dL
  Cl: 105.4 meq/L
  DBIL: 0.008 mg/dL
  GLC: 183 mg/dL
  IP: 8.2 mg/dL
  K: 4.7 meq/L
  LDH: 99.8 IU/L
  Na: 140.2 meq/L
  PL: 150.2 mg/dL
  RALB: 4 g/dL
  TBIL: 0.3 mg/dL
  TC: 83.2 mg/dL
  TG: 80.2 mg/dL
  TP: 5.8 g/dL
  gamma-GTP: 1.4 IU/L
[…], time 7 day
  TERMINAL_BW: 228 g
  APTT: 18.8 s
  Bas: 0%
  Eos: 1%
  Fbg: 226.7 mg/dL
  Hb: 13.6 g/dL
  Ht: 40.4%
  Lym: 80.8%
  MCH: 21.6 pg
  MCHC: 33.5%
  MCV: 64.3 fL
  Mono: 6.2%
  Neu: 12%
  PT: 12.1 s
  Plat: 112.5 x10_4/uL
  RBC: 629.6 x10_4/ul
  Ret: 6.6%
  WBC: 142 x10_2/uL
  KIDNEY_L: 1 g
  KIDNEY_R: 1 g
  KIDNEY_TOTAL: 2 g
  LIVER: 10.9 g
  A/G: 2.1
  ALP: 1017 IU/L
  ALT: 38.2 IU/L
  AST: 63.2 IU/L
  BUN: 19 mg/dL
  CRE: 0.6 mg/dL
  Ca: 11 mg/dL
  Cl: 106.4 meq/L
  DBIL: 0.006 mg/dL
  GLC: 184.4 mg/dL
  IP: 8.1 mg/dL
  K: 6.3 meq/L
  LDH: 107.6 IU/L
  Na: 139 meq/L
  PL: 157.8 mg/dL
  RALB: 3.9 g/dL
  TBIL: 0.3 mg/dL
  TC: 83.4 mg/dL
  TG: 90.8 mg/dL
  TP: 5.7 g/dL
  gamma-GTP: 1 IU/L
[…], time 14 day
  TERMINAL_BW: 287.8 g
  APTT: 17 s
  Bas: 0%
  Eos: 0.6%
  Fbg: 238.4 mg/dL
  Hb: 13.9 g/dL
  Ht: 41.6%
  Lym: 80.4%
  MCH: 20.9 pg
  MCHC: 33.5%
  MCV: 62.3 fL
  Mono: 5.6%
  Neu: 13.6%
  PT: 11.7 s
  Plat: 109.2 x10_4/uL
  RBC: 668.4 x10_4/ul
  Ret: 5.7%
  WBC: 131 x10_2/uL
  KIDNEY_L: 1.2 g
  KIDNEY_R: 1.2 g
  KIDNEY_TOTAL: 2.3 g
  LIVER: 13.5 g
  A/G: 1.8
  ALP: 903 IU/L
  ALT: 30.6 IU/L
  AST: 67.4 IU/L
  BUN: 18.6 mg/dL
  CRE: 0.5 mg/dL
  Ca: 11.1 mg/dL
  Cl: 103.2 meq/L
  DBIL: 0.01 mg/dL
  GLC: 175.2 mg/dL
  IP: 7.9 mg/dL
  K: 4.7 meq/L
  LDH: 100.6 IU/L
  Na: 141 meq/L
  PL: 154.6 mg/dL
  RALB: 4 g/dL
  TBIL: 0.3 mg/dL
  TC: 72.2 mg/dL
  TG: 134.8 mg/dL
  TP: 6.2 g/dL
  gamma-GTP: 1.6 IU/L
[…], time 28 day
  TERMINAL_BW: 360.5 g
  APTT: 17.8 s
  Bas: 0%
  Eos: 1.4%
  Fbg: 235.8 mg/dL
  Hb: 14.8 g/dL
  Ht: 43.9%
  Lym: 83%
  MCH: 19.6 pg
  MCHC: 33.6%
  MCV: 58.3 fL
  Mono: 4.4%
  Neu: 11.6%
  PT: 11.8 s
  Plat: 100.7 x10_4/uL
  RBC: 753.4 x10_4/ul
  Ret: 2.9%
  WBC: 164.6 x10_2/uL
  KIDNEY_L: 1.3 g
  KIDNEY_R: 1.3 g
  KIDNEY_TOTAL: 2.7 g
  LIVER: 16 g
  A/G: 1.7
  ALP: 807.8 IU/L
  ALT: 31.2 IU/L
  AST: 58.2 IU/L
  BUN: 20.8 mg/dL
  CRE: 0.6 mg/dL
  Ca: 10.9 mg/dL
  Cl: 106.2 meq/L
  DBIL: 0.016 mg/dL
  GLC: 175.2 mg/dL
  IP: 7.2 mg/dL
  K: 4.6 meq/L
  LDH: 91.4 IU/L
  Na: 140 meq/L
  PL: 164 mg/dL
  RALB: 3.8 g/dL
  TBIL: 0.3 mg/dL
  TC: 78.2 mg/dL
  TG: 154.8 mg/dL
  TP: 6.1 g/dL
  gamma-GTP: 1 IU/L
